Experimental data taken from ChEMBL document CHEMBL1201862, “PubChem BioAssay data set” (2004).
Counter-ions that a name gives are not always drawn.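 Method: 48-hour compound exposure of cells in 96-well plates, five concentrations, linear interpolation of endpoints. Here, GI50 denotes the concentration required for 50% inhibition of growth.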 The source made the active and inactive calls. No stated cut-off is given here; in the data, active = GI50 up to about 1.1 µM and inactive = higher. Non-standard residues stand in square brackets, D forms with d. Residues, ends and D or L forms follow the SMILES beside them. ξ: configuration not given here. *: point of attachment. X18 = COC1=CC(=O)N(C(=O)C(O*)C(C)C)C1Cc1ccccc1; ξNMe2Val = CC(C)C(C(=O)*)N(C)C; NMeV = CN[CH](C(=O)O)C(C)C

Legend:
Experiment in all cases: NCI anticancer screen, dose series, 48 h
M19-MEL = test system: M19-MEL
HOP-18 = test system: HOP-18
XF498 = test system: XF498
LXFL 529 = test system: LXFL 529
DLD-1 = test system: DLD-1
DMS-114 = test system: DMS-114
SNB-78 = test system: SNB-78
DMS-273 = test system: DMS-273
RXF 631 = test system: RXF 631

Compound	GI50 (M19-MEL)	GI50 (HOP-18)	GI50 (XF498)	GI50 (LXFL 529)	GI50 (DLD-1)	GI50 (DMS-114)	GI50 (SNB-78)	GI50 (DMS-273)	GI50 (RXF 631)
O=C1/C(=C/c2ccccc2)CCCC/C1=C\c1ccccc1	48.5 µM (inactive)	> 100 µM (inactive)	54.5 µM (inactive)	55.2 µM (inactive)	34.2 µM (inactive)	42.5 µM (inactive)	> 100 µM (inactive)	47.1 µM (inactive)	52.8 µM (inactive)
c1cc2c(cc1C1OCC3C(c4ccc5c(c4)OCO5)OCC13)OCO2 (centres undefined)	51.2 µM (inactive)	> 100 µM (inactive)	28.8 µM (inactive)	37.8 µM (inactive)	65.3 µM (inactive)	40.4 µM (inactive)	> 100 µM (inactive)	–	–
CCOC(=O)C(=CNC(Cc1c[nH]c2ccccc12)C(=O)OC)C(=O)OCC (centres undefined)	> 100 µM (inactive)	92 µM (inactive)	> 100 µM (inactive)	> 100 µM (inactive)	> 100 µM (inactive)	> 100 µM (inactive)	> 100 µM (inactive)	–	> 100 µM (inactive)
CC1C(=O)OC2CC[N+]3(CC(=O)c4ccc(Br)cc4)CC=C(COC(=O)C(C)(O)C1(C)O)C23 (centres undefined)	> 375 µM (inactive)	> 375 µM (inactive)	259 µM (inactive)	–	> 375 µM (inactive)	> 375 µM (inactive)	211 µM (inactive)	> 128 µM (inactive)	–
CCC(O)(c1ccc(OC)cc1)C(c1ccc(OCc2ccccc2)cc1)c1ccc(OCc2ccccc2)cc1 (centres undefined)	> 100 µM (inactive)	–	> 100 µM (inactive)	> 100 µM (inactive)	> 100 µM (inactive)	> 100 µM (inactive)	> 100 µM (inactive)	> 100 µM (inactive)	> 100 µM (inactive)
C#CCOc1c(C(=O)OCC)c(=O)n(C)c2ccccc12	> 100 µM (inactive)	> 100 µM (inactive)	72.6 µM (inactive)	> 100 µM (inactive)	> 100 µM (inactive)	> 100 µM (inactive)	> 100 µM (inactive)	–	> 100 µM (inactive)
CC1=Nc2c(ccc3c2C(=O)c2ccccc2C3=O)NC(c2ccncc2)C1 (centres undefined)	> 10 µM (inactive)	> 10 µM (inactive)	> 100 µM (inactive)	> 10 µM (inactive)	29.4 µM (inactive)	7.74 µM (inactive)	> 10 µM (inactive)	> 10 µM (inactive)	36.6 µM (inactive)
COC(=O)CC(c1ccccc1)C1(c2ccccc2)SCCS1 (centres undefined)	> 290 µM (inactive)	> 290 µM (inactive)	> 290 µM (inactive)	92.7 µM (inactive)	> 290 µM (inactive)	121 µM (inactive)	–	104 µM (inactive)	161 µM (inactive)
O=C(N/C(=C\c1cccc([N+](=O)[O-])c1)c1nc2c(O)nc(S)nc2[nH]1)c1ccccc1	> 100 µM (inactive)	> 100 µM (inactive)	> 100 µM (inactive)	58.5 µM (inactive)	> 100 µM (inactive)	88.9 µM (inactive)	> 100 µM (inactive)	–	> 100 µM (inactive)
Cc1ccccc1NC(=O)C(=O)CC(=O)c1sc(-n2nc(-c3ccccc3)cc2-c2ccccc2)nc1C	> 100 µM (inactive)	–	–	> 100 µM (inactive)	> 100 µM (inactive)	> 100 µM (inactive)	> 100 µM (inactive)	> 100 µM (inactive)	> 100 µM (inactive)
COC(=O)c1nn(C(=N)c2ccc(Cl)cc2)c2c1CCC2	> 100 µM (inactive)	–	> 100 µM (inactive)	> 100 µM (inactive)	> 100 µM (inactive)	> 100 µM (inactive)	> 100 µM (inactive)	> 100 µM (inactive)	–
CCCCN(CCCC)C(=O)/C(CC(=O)c1cccc2ccccc12)=N\NC(=O)c1cc2ccccc2cc1O	20.4 µM (inactive)	–	20 µM (inactive)	27.3 µM (inactive)	23.4 µM (inactive)	–	24.7 µM (inactive)	–	26.7 µM (inactive)
COC1C=COC2(C)Oc3c(C)c(O)c4c(O)c(c(/C=N/N5CCN(N)CC5)c(O)c4c3C2=O)NC(=O)C(C)=CC=CC(C)C(O)C(C)C(O)C(C)C(OC(C)=O)C1C (centres undefined)	42 µM (inactive)	–	–	63.4 µM (inactive)	82.6 µM (inactive)	64.4 µM (inactive)	88.1 µM (inactive)	> 100 µM (inactive)	–
N=S(=O)(c1ccccc1)c1ccccc1	> 100 µM (inactive)	> 100 µM (inactive)	–	> 100 µM (inactive)	> 100 µM (inactive)	> 100 µM (inactive)	> 100 µM (inactive)	–	–
O=C1CCCCCCCCCCC(=O)C2CCOCCOCCOCCC1Cc1cccc(n1)C2	> 100 µM (inactive)	–	59.7 µM (inactive)	59.8 µM (inactive)	> 100 µM (inactive)	77.6 µM (inactive)	79.6 µM (inactive)	54.5 µM (inactive)	80.4 µM (inactive)
CC(SC1=CC(=O)c2c(Cl)ccc(O)c2C1=O)C(=O)O (centres undefined)	–	27.5 µM (inactive)	19.9 µM (inactive)	16 µM (inactive)	17.3 µM (inactive)	18.2 µM (inactive)	12.6 µM (inactive)	18.1 µM (inactive)	–
CCCOc1nc(N)c2cnn(C3CCCCO3)c2n1 (centres undefined)	> 100 µM (inactive)	68.9 µM (inactive)	–	> 100 µM (inactive)	> 100 µM (inactive)	> 100 µM (inactive)	> 100 µM (inactive)	> 100 µM (inactive)	–
Nc1nc(=O)[nH][nH]1	> 100 µM (inactive)	–	> 100 µM (inactive)	–	> 100 µM (inactive)	> 100 µM (inactive)	> 100 µM (inactive)	> 100 µM (inactive)	–
O=C1C(=O)N(c2cc(Cl)ccc2Cl)C(=O)C(=O)C1c1nc2ccccc2s1	> 100 µM (inactive)	–	> 100 µM (inactive)	82.2 µM (inactive)	> 100 µM (inactive)	> 100 µM (inactive)	> 100 µM (inactive)	> 100 µM (inactive)	–
CC(C)(C)[Si](C)(C)O/N=C\c1cccc(O[Si](C)(C)C(C)(C)C)c1	17.8 µM (inactive)	22.5 µM (inactive)	18.5 µM (inactive)	15.7 µM (inactive)	17.8 µM (inactive)	18.8 µM (inactive)	15.7 µM (inactive)	17.7 µM (inactive)	–
CCCCN/C(=N\C#N)N(Cc1ccccc1)Cc1ccccc1	18.1 µM (inactive)	39.8 µM (inactive)	–	16.9 µM (inactive)	19.1 µM (inactive)	–	18.2 µM (inactive)	16.1 µM (inactive)	–
CN(C)C(=S)/N=c1\ss/c(=N\C(=S)N(C)C)n1-c1ccc2c(c1)OCO2	–	–	–	–	–	5.11 µM (inactive)	–	> 100 µM (inactive)	–
COC(=O)C(CC(=O)c1c[nH]c2ccccc12)c1c[nH]c2ccccc12 (centres undefined)	> 10 µM (inactive)	–	17.9 µM (inactive)	–	30.8 µM (inactive)	15.8 µM (inactive)	22.2 µM (inactive)	13.5 µM (inactive)	15.8 µM (inactive)
COc1cc2c[n+](C)c3c4cc(OC)c(OC(C)C)cc4ccc3c2cc1OC	18.4 µM (inactive)	49.7 µM (inactive)	–	7.35 µM (inactive)	> 100 µM (inactive)	5.85 µM (inactive)	50 µM (inactive)	27.2 µM (inactive)	–
CC(C)(C)C(=O)/C=C/c1cccc(Oc2ccccc2)c1	16.9 µM (inactive)	16.6 µM (inactive)	18.8 µM (inactive)	18.1 µM (inactive)	11.5 µM (inactive)	–	14.2 µM (inactive)	–	28.1 µM (inactive)
CN(C)CCCOc1ccc(/C=C2/CCC/C(=C/c3ccc(OCCCN(C)C)cc3)C2=O)cc1	–	3.61 µM (inactive)	–	1.89 µM (inactive)	1.5 µM (inactive)	1.56 µM (inactive)	3.25 µM (inactive)	1.45 µM (inactive)	–
COC1[C@@H](OC(C)=O)[C@@H](NC(=O)C(Cl)(Cl)Cl)C(I)[C@@H](N2C(=O)c3ccccc3C2=O)[C@H]1OC (some centres undefined)	–	> 100 µM (inactive)	–	> 100 µM (inactive)	> 100 µM (inactive)	> 100 µM (inactive)	> 100 µM (inactive)	> 100 µM (inactive)	–
CN(c1n[n+]2c(-c3ccccc3)csc2s1)c1n[n+]2c(-c3ccccc3)csc2s1	> 100 µM (inactive)	> 100 µM (inactive)	> 100 µM (inactive)	87.3 µM (inactive)	> 100 µM (inactive)	59.6 µM (inactive)	> 100 µM (inactive)	> 100 µM (inactive)	–
COC1=CC(=O)N(C(=O)C(OC(=O)C2CCCN2C(=O)C2CCCN2C(=O)C(C(C)C)N(C)C(=O)C(NC(=O)C(C(C)C)N(C)C)C(C)C)C(C)C)C1Cc1ccccc1 (centres undefined) (ξNMe2Val-V[NMeV]PP-X18; configuration not given here)	0.00319 µM (active)	< 0.01 µM (active)	0.000308 µM (active)	0.00119 µM (active)	0.00108 µM (active)	0.000476 µM (active)	0.00244 µM (active)	0.00103 µM (active)	0.00459 µM (active)
CC(=O)N(O)CCCCCNC(=O)CCC(=O)N(O)CCCCCNC(=O)CCC(=O)N(O)CCCCCN [DEFEROXAMINE HYDROCHLORIDE]	43.8 µM (inactive)	12.7 µM (inactive)	> 100 µM (inactive)	36.4 µM (inactive)	45.3 µM (inactive)	43.4 µM (inactive)	> 100 µM (inactive)	28.2 µM (inactive)	26.9 µM (inactive)
